Measurements as given in US8192962B2, “Processes for detecting toxic substances” (Daikin Industries, Ltd., priority 2001, dated 2012).

System: Transport facilitation protein genes
Experiment: DNA chip mRNA expression in yeast, transport facilitation protein genes (Table 5)
Format: cell-based, Saccharomyces cerevisiae S288C
Method in brief: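 S. cerevisiae S288C grown at 25° C in YPD were exposed in log phase for two hours to one toxic chemical at a growth-inhibiting, non-lethal concentration; untreated cells served as control. Poly(A) mRNA was reverse-transcribed with Cy3/Cy5-dUTP and hybridized to a whole-genome yeast DNA chip at 65° C for over 12 hours; values are fluorescence ratios versus untreated.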

SMILES: O=[N+]([O-])c1cc[n+]([O-])c2ccccc12 [(5), 4-nitroquinolin-N-oxide]
- The level of expressed mRNA in the presence of chemical substance/The level of expressed mRNA in the absence of chemical substance (yeast gene YGR281W): 0.6
- The level of expressed mRNA in the presence of chemical substance/The level of expressed mRNA in the absence of chemical substance (yeast gene YHL035C): 0.9
- The level of expressed mRNA in the presence of chemical substance/The level of expressed mRNA in the absence of chemical substance (yeast gene YHL040C): 1.1
- The level of expressed mRNA in the presence of chemical substance/The level of expressed mRNA in the absence of chemical substance (yeast gene YHL047C): 1.2
- The level of expressed mRNA in the presence of chemical substance/The level of expressed mRNA in the absence of chemical substance (yeast gene YHR026W): 1.1
- The level of expressed mRNA in the presence of chemical substance/The level of expressed mRNA in the absence of chemical substance (yeast gene YHR092C): 1.4
- The level of expressed mRNA in the presence of chemical substance/The level of expressed mRNA in the absence of chemical substance (yeast gene YHR094C): 1.1
- The level of expressed mRNA in the presence of chemical substance/The level of expressed mRNA in the absence of chemical substance (yeast gene YHR175W): 0.9
- The level of expressed mRNA in the presence of chemical substance/The level of expressed mRNA in the absence of chemical substance (yeast gene YIL006W): 0.8
- The level of expressed mRNA in the presence of chemical substance/The level of expressed mRNA in the absence of chemical substance (yeast gene YIL022W): 0.8
- The level of expressed mRNA in the presence of chemical substance/The level of expressed mRNA in the absence of chemical substance (yeast gene YIL056W): 1.2
- The level of expressed mRNA in the presence of chemical substance/The level of expressed mRNA in the absence of chemical substance (yeast gene YIL088C): 1.6
- The level of expressed mRNA in the presence of chemical substance/The level of expressed mRNA in the absence of chemical substance (yeast gene YJL034W): 1.2
- The level of expressed mRNA in the presence of chemical substance/The level of expressed mRNA in the absence of chemical substance (yeast gene YJL212C): 1.2
- The level of expressed mRNA in the presence of chemical substance/The level of expressed mRNA in the absence of chemical substance (yeast gene YJL219W): 1.2
- The level of expressed mRNA in the presence of chemical substance/The level of expressed mRNA in the absence of chemical substance (yeast gene YJR077C): 0.9
- The level of expressed mRNA in the presence of chemical substance/The level of expressed mRNA in the absence of chemical substance (yeast gene YJR106W): 0.9
- The level of expressed mRNA in the presence of chemical substance/The level of expressed mRNA in the absence of chemical substance (yeast gene YJR121W): 0.8
- The level of expressed mRNA in the presence of chemical substance/The level of expressed mRNA in the absence of chemical substance (yeast gene YKL016C): 1.5
- The level of expressed mRNA in the presence of chemical substance/The level of expressed mRNA in the absence of chemical substance (yeast gene YKL146W): 1.0
- The level of expressed mRNA in the presence of chemical substance/The level of expressed mRNA in the absence of chemical substance (yeast gene YKR039W): 1.0
- The level of expressed mRNA in the presence of chemical substance/The level of expressed mRNA in the absence of chemical substance (yeast gene YKR067W): 1.3
- The level of expressed mRNA in the presence of chemical substance/The level of expressed mRNA in the absence of chemical substance (yeast gene YLL028W): 0.9
- The level of expressed mRNA in the presence of chemical substance/The level of expressed mRNA in the absence of chemical substance (yeast gene YLR081W): 1.0
- The level of expressed mRNA in the presence of chemical substance/The level of expressed mRNA in the absence of chemical substance (yeast gene YLR295C): 2.2
- The level of expressed mRNA in the presence of chemical substance/The level of expressed mRNA in the absence of chemical substance (yeast gene YLR348C): 0.9
- The level of expressed mRNA in the presence of chemical substance/The level of expressed mRNA in the absence of chemical substance (yeast gene YLR378C): 1.0
- The level of expressed mRNA in the presence of chemical substance/The level of expressed mRNA in the absence of chemical substance (yeast gene YMR011W): 0.9
- The level of expressed mRNA in the presence of chemical substance/The level of expressed mRNA in the absence of chemical substance (yeast gene YMR162C): 0.9
- The level of expressed mRNA in the presence of chemical substance/The level of expressed mRNA in the absence of chemical substance (yeast gene YMR203W): 0.6
- The level of expressed mRNA in the presence of chemical substance/The level of expressed mRNA in the absence of chemical substance (yeast gene YNL055C): 0.9
- The level of expressed mRNA in the presence of chemical substance/The level of expressed mRNA in the absence of chemical substance (yeast gene YNL259C): 1.1
- The level of expressed mRNA in the presence of chemical substance/The level of expressed mRNA in the absence of chemical substance (yeast gene YNR072W): 1.0
- The level of expressed mRNA in the presence of chemical substance/The level of expressed mRNA in the absence of chemical substance (yeast gene YOL119C): 1.5
- The level of expressed mRNA in the presence of chemical substance/The level of expressed mRNA in the absence of chemical substance (yeast gene YOL156W): 1.2
- The level of expressed mRNA in the presence of chemical substance/The level of expressed mRNA in the absence of chemical substance (yeast gene YOL163W): 0.9
- The level of expressed mRNA in the presence of chemical substance/The level of expressed mRNA in the absence of chemical substance (yeast gene YOR035C): 1.0
- The level of expressed mRNA in the presence of chemical substance/The level of expressed mRNA in the absence of chemical substance (yeast gene YOR130C): 1.8
- The level of expressed mRNA in the presence of chemical substance/The level of expressed mRNA in the absence of chemical substance (yeast gene YOR153W): 1.0
- The level of expressed mRNA in the presence of chemical substance/The level of expressed mRNA in the absence of chemical substance (yeast gene YOR270C): 0.8
- The level of expressed mRNA in the presence of chemical substance/The level of expressed mRNA in the absence of chemical substance (yeast gene YOR273C): 1.1
- The level of expressed mRNA in the presence of chemical substance/The level of expressed mRNA in the absence of chemical substance (yeast gene YOR316C): 1.0
- The level of expressed mRNA in the presence of chemical substance/The level of expressed mRNA in the absence of chemical substance (yeast gene YOR328W): 1.0
- The level of expressed mRNA in the presence of chemical substance/The level of expressed mRNA in the absence of chemical substance (yeast gene YOR332W): 0.9
- The level of expressed mRNA in the presence of chemical substance/The level of expressed mRNA in the absence of chemical substance (yeast gene YOR348C): 0.9
- The level of expressed mRNA in the presence of chemical substance/The level of expressed mRNA in the absence of chemical substance (yeast gene YPL036W): 1.3
- The level of expressed mRNA in the presence of chemical substance/The level of expressed mRNA in the absence of chemical substance (yeast gene YPL134C): 1.4
- The level of expressed mRNA in the presence of chemical substance/The level of expressed mRNA in the absence of chemical substance (yeast gene YPL265W): 1.0
- The level of expressed mRNA in the presence of chemical substance/The level of expressed mRNA in the absence of chemical substance (yeast gene YPL271W): 1.4
- The level of expressed mRNA in the presence of chemical substance/The level of expressed mRNA in the absence of chemical substance (yeast gene YPR124W): 2.0
- The level of expressed mRNA in the presence of chemical substance/The level of expressed mRNA in the absence of chemical substance (yeast gene YPR192W): 1.2
- The level of expressed mRNA in the presence of chemical substance/The level of expressed mRNA in the absence of chemical substance (yeast gene YPR194C): 1.3
